As a reminder, the solubility (mole fraction) is the moles of solute divided by all moles in the saturated solution. Take `N[C@@H](Cc1cnc[nH]1)C(=O)O`: the solubility (mole fraction) reads like this: (in ethanol, 288.15 K) 1.6e-05; (in ethanol, 293.15 K) 2e-05; (in ethanol, 298.15 K) 2.8e-05; (in ethanol, 303.15 K) 3.1e-05; (in ethanol, 308.15 K) 3.9e-05; (in water, 288.15 K) 0.00379. Also, the solubility (mole fraction) is, setting by setting: (in water, 293.15 K) 0.00418; (in water, 298.15 K) 0.0046; (in water, 303.15 K) 0.00515; (in water, 308.15 K) 0.0057.
`N[C@@H](Cc1c[nH]c2ccccc12)C(=O)O` returned a solubility (mole fraction) (in ethanol, 288.15 K) of 0.000142; a solubility (mole fraction) (in ethanol, 293.15 K) of 0.000178; a solubility (mole fraction) (in ethanol, 298.15 K) of 0.000209; a solubility (mole fraction) (in ethanol, 303.15 K) of 0.000246; a solubility (mole fraction) (in ethanol, 308.15 K) of 0.000284; a solubility (mole fraction) (in water, 288.15 K) of 0.00116. The solubility (mole fraction) by setting is: (in water, 293.15 K) 0.00119; (in water, 298.15 K) 0.00122; (in water, 303.15 K) 0.00125; (in water, 308.15 K) 0.00128.

The values are drawn from BigSolDB 2.1.
